In patent US8623904B2, “Use of tetramic acid derivatives for controlling pests by watering or droplet application” (Bayer CropScience AG, priority 2007, dated 2014):

Columns and labels:
[1] = system: Oidium Iycopersicum; experiment: Drench application to tomato plants on rock wool, infection with powdery mildew Oidium Iycopersicum, efficacy by Abbott formula; type: in vivo; settings: 40 mg of active compound/plant, 240 SC, watered 100 ml; for Efficacy (% Abbott) against Oidium Iycopersicum 14 d: 14 d after infection; for Efficacy (% Abbott) against Oidium Iycopersicum 23 d: 23 d after infection; for Efficacy (% Abbott) against Oidium Iycopersicum 28 d new growth / Efficacy (% Abbott) against Oidium Iycopersicum 28 d old leaves: 28 d after infection
Protocol: In each case three tomato plants of the cultivar “Hoffmanns Rendita” on rock wool are, in two replications, watered one week after transplantation with in each case 100 ml of active compound solution comprising the active compound (II) (formulation: 240 SC) at the stated application rate. The greenhouse temperature is 20° C. during the day and 17° C. at night. Infection with the powdery mildew Oidium Iycopersicum is in each case carried out two and seven days after the active compound application. Evaluation is in each case carried out 14, 23, 28, 35 days after the respective infection by determining the efficacy on the old leaves and the new growth using the Abbott formula*.
(§1) Calculation of the efficacy according to Abbott:
(§2) [formula] where X=value for the control and Y=value for the compound tested

[2] = system: Leveillula taurica; experiment: Drench application to bell pepper plants, natural infection with Leveillula taurica, efficacy by Abbott formula; type: in vivo; settings: 240 SC, watered 50 ml, bell pepper "Shishitou aoi", 21 days after treatment
Protocol: 8 plots each 2.25 m^2 in size with bell pepper plants of the cultivar “Shishitou aoi” are, in two replications, watered with 50 ml of an active compound solution comprising the active compound (II) (formulation: 240 SC) at the stated application rate. Following a severe natural infection with Leveillula taurica, evaluation is carried out 21 days after the treatment by determining the efficacy using the Abbott formula*.
as §1, §2

## CCOC(=O)OC1=C(c2cc(C)ccc2C)C(=O)N[C@]12CC[C@@H](OC)CC2 [Active compound (II)]
[1]; 2 d prior to infection
  Efficacy (% Abbott) against Oidium Iycopersicum 14 d: 33 % Abbott
  Efficacy (% Abbott) against Oidium Iycopersicum 23 d: 40 % Abbott
  Efficacy (% Abbott) against Oidium Iycopersicum 28 d new growth: 65 % Abbott
  Efficacy (% Abbott) against Oidium Iycopersicum 28 d old leaves: 41 % Abbott
[1]; 7 d prior to infection
  Efficacy (% Abbott) against Oidium Iycopersicum 14 d: 45 % Abbott
  Efficacy (% Abbott) against Oidium Iycopersicum 23 d: 45 % Abbott
  Efficacy (% Abbott) against Oidium Iycopersicum 28 d new growth: 77 % Abbott
  Efficacy (% Abbott) against Oidium Iycopersicum 28 d old leaves: 45 % Abbott
[2]; 40 mg of active compound/plant
  Efficacy (% Abbott) against Leveillula taurica 21 d: 87.4 % Abbott
[2]; 60 mg of active compound/plant
  Efficacy (% Abbott) against Leveillula taurica 21 d: 100 % Abbott
[2]; 80 mg of active compound/plant
  Efficacy (% Abbott) against Leveillula taurica 21 d: 100 % Abbott
